Read-outs that look alike come from different tables or passages of the source.
Tests used:
[1] = target: T1, NLK (Homo sapiens, UniProt Q9UBE8); test: NLK in vitro kinase assay, compound added to active NLK immunopurified from Kp53A1 cells; format: biochemical; set-up: inhibition of NLK kinase activity in vitro: dose or concentration left out as unconfirmed; conditions: for NLK activity with compound added to activated NLK in in vitro kinase assay: 0, 50 nM, 50 μM or 50 mM, 30 mins
T1 sequence (Q9UBE8 1-527): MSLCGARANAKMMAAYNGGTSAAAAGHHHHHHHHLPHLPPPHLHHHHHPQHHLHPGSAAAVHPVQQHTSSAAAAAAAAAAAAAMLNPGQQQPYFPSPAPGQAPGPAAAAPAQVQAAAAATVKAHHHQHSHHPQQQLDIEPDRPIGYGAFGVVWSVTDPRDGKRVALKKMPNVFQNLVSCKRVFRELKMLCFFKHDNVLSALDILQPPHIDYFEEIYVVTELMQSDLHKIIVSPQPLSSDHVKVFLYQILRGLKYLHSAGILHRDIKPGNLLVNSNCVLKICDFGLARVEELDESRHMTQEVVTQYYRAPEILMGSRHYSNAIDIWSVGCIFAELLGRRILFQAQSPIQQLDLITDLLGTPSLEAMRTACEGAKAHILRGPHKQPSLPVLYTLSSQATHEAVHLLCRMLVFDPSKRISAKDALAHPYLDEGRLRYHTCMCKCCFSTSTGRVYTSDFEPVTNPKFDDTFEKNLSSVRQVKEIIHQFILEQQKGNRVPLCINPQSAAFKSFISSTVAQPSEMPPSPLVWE
Protocol: FIG. 6. […] (a) Schematic of assay utilized to screen compounds for effects on erythroid progenitor cell expansion. Lin-Kit+fetal liver cells were obtained from mouse embryos expressing tet-on shRNA against RPS19, at day E14.5-15.5. Cells were plated at 2000 cell per well in 96-well plates in the presence or absence of doxycycline. Relative amounts of live cells were quantified by luciferase-based Cell titer-Glo® assay. (b) TGFβR1 inhibitors including SB431542 were assessed for their ability to increase cell expansion in RPS19-insuffiency. As a control, untreated (no doxycycline) is represented at the far left while all other samples were treated with doxycycline to induce RPS19-insufficiency. (c) Kit+ erythroid progenitors were grown in the absence of doxycycline and in the presence of 10 μM of indicated compound. As a comparison, samples with no inhibitor added are represented in grey. In addition, cells were either left untreated, or treated with 5 ng/ml of TGFβ1 for 5 days before being subjected to Cell TiterGlo® assay. (d) Schematic indicating Smad2 and Smad3 serve as substrates for activated TGFβR1 while NLK, c-Myb and raptor serve as substrates for activated NLK (upper panel). K562 cells were stimulated with 5 ng/ml TGFβ1 for 10 min and TGFβR1 was immunopurified after cell lysis and protein normalization. TGFβR1 was added to purified Smad2 (middle panel) and Smad3 (lower panel) in the presence of ATP and Mg^2+ at 37° C. for 30 min. As per NLK kinase assay, phosphorylation of substrates was detected by antibody raised against phosphorylated serine residues. Compounds with inhibitory properties against TGFβR1, other TGFB pathway factors, or NLK expression were added to the kinase reactions at concentrations known to inhibit TGFB signaling.
FIG. 10. […] (Panel A) Control (shLuc—grey columns) or RPS19-insufficient (shRPS19-—black columns) progenitors were differentiated in erythroid media alone, vehicle or vehicle containing 50 mM metformin or 5 uM SD208 for 5 days. 5000 cells per treatment were lysed and immunopurified NLK was subjected to in vitro kinase assay to determine phosphorylation potential against 3 recognized NLK substrates; NLK itself (upper), c-Myb (middle) or raptor (bottom). (Panel B) Simultaneously, qRT-PCR was performed to examine NLK (upper) and RPS19 (lower) mRNA expression. (Panel C) Active NLK was purified from activated Kp53A1 cells and subjected to in vitro kinase assay in the presence of 0, 50 nM, 50 μM, or 50 mM metformin or SD208. The phosphorylation of NLK (upper), c-Myb (middle) and raptor (lower) was determined after 30 mins. (Panel D) CD34+ progenitors were transduced with a combination of either shRNA against luciferase (shLuc—grey columns) or RPS19 (shRPS19—black columns) and siRNA against a non-targeting sequence (NT) or NLK (siNLK). After 14 days differentiation in the presence or absence of metformin, cells were counted and the percentage of cells with surface expression of CD235 and CD11b were determined by flow cytometry, to yield the number of CD235+ erythroid (upper) and CD11b+ myeloid (lower) cells. The total number of cells is expressed as a percentage of the number of each cell type in the control (untreated/shLuc/NT). […] Statistics: two-tailed Student's t test, significant *P<0.05
For NLK kinase analysis, cultures were treated as indicated and lysed for 30 min at 4° C. in 750 μl of kinase lysis buffer (50 mM Tris [pH 7.4], 5 mM EDTA, 250 mM NaCl, 0.1% Triton X-100, 50 mM NaF, 0.1 trypsin inhibitor unit of aprotinin per ml, 50 μg of phenylmethylsulfonyl fluoride per ml, 100 μM sodium vanadate, 1 μg of leupeptin per ml).

[2] = tested on: CD235+ erythroblasts; test: CD235+ erythroid expansion of differentiating human cord blood CD34+ progenitors (shRPS19/shRPL11 DBA models), flow cytometry; format: cell-based; set-up: increase of erythroid expansion / impact on erythropoiesis in healthy controls / erythroid expansion in RPS19-insufficiency: dose or concentration left out as unconfirmed; conditions: for erythroid expansion in RPS19-insufficiency: alone and combined; for increase of CD235+ erythroid expansion / CD235+ erythroid expansion, % of control: 50 mM metformin; for CD235+ erythroid expansion, % of control: 14 days
[3] = tested on: NLK; test: NLK expression in differentiating human progenitors (qRT-PCR, Western blot); format: cell-based; set-up: reduction of endogenous NLK expression: concentration or dose not given beside the values
[4] = panel assessed at 0.1, 1 and 10 μM, compared with TGFβR1 at 1 μM
[5] = ginsenoside Rb1, metformin, alone and combined

Cc1cccc(-c2nn3c(c2-c2ccnc4ccc(C(N)=O)cc24)CCC3)n1 [Galunisertib]
inhibition at 1 µM [1, 4]: 40 to 45%

NC(=O)c1ccc(-c2nc(-c3ccc4c(c3)OCO4)c(-c3ccccn3)[nH]2)cc1 [SB431542]
inhibition at 1 µM [1, 4]: ~55%

Fc1ccc(Cl)cc1-c1nc(Nc2ccncc2)c2nccnc2n1 [SD208]
CD235+ erythroblast expansion, % of controls ([2]; RPS19-insufficient, SD208 and/or siRNA against NLK, 15 days): 40.3%
erythroid expansion, % of untreated controls ([2]; control shRNA, SD208 5 μM, 15 days): approximately 105%
NLK activity with compound added to activated NLK in in vitro kinase assay [1]: robustly inhibited
inhibition of NLK phosphorylating NLK ([1]; 5 μM): 84.3%
inhibition of NLK phosphorylating Raptor ([1]; 5 μM): 89.1%
inhibition of NLK phosphorylating c-Myb ([1]; 5 μM): 79.7%
inhibition of NLK activity in vitro [1, 4]: approximately 80%

CC(C)=CCC[C@](C)(O[C@@H]1O[C@H](CO[C@@H]2O[C@H](CO)[C@@H](O)[C@H](O)[C@H]2O)[C@@H](O)[C@H](O)[C@H]1O)[C@H]1CC[C@]2(C)[C@@H]1[C@H](O)C[C@@H]1[C@@]3(C)CC[C@H](O[C@@H]4O[C@H](CO)[C@@H](O)[C@H](O)[C@H]4O[C@@H]4O[C@H](CO)[C@@H](O)[C@H](O)[C@H]4O)C(C)(C)[C@@H]3CC[C@]12C [ginsenoside Rb1]
concentration at which 90% potency is achieved [2]: 8.6 mM
impact on erythropoiesis in healthy controls [2]: did not significantly impact
improvement of erythroid expansion ([2]; RPS19-insufficiency, ginsenoside and/or siRNA against NLK): 2.7 fold
increase of erythroid expansion ([2]; RPS19-insufficiency, miRNA and/or drug): 2.52 fold
increase of erythroid expansion ([2]; RPS19-insufficient progenitors): 2.6 fold
erythroid expansion in RPS19-insufficiency [2]: 20.9%
EC50 ([2]; read-out: EC50 value (erythroid expansion)): 2.3 mM
reduction of NLK protein ([3]; differentiating HSPCs, 5 mM): 31.5%
suppression of NLK expression [3, 5]: 34.6%
reduction of endogenous NLK expression ([3]; ginsenoside Rb1-treated differentiating HSPCs (miRNA sponge experiment)): 44.8%
suppression of NLK expression ([3]; miRNA species transduced into differentiating HSPCs, ginsenoside Rb1 for comparison): 34.6%
inhibition of NLK kinase activity in vitro ([1]; substrates Raptor, c-Myb, NLK): failed to inhibit

CN(C)C(=N)N=C(N)N [metformin]
concentrations at which significant erythroid improvement was detected [2]: above 8 mM
EC50 ([2]; Homo sapiens, read-out: EC50 (erythroid expansion)): 11.4 mM
increase of CD235+ erythroid expansion ([2]; RPL11-insufficiency): 2.0 fold
CD235+ erythroid expansion, % of control ([2]; RPL11-insufficiency, 16.4% untreated): 32.7%
improvement of erythropoiesis (CD235+) ([2]; RPS19-insufficiency (8.3% of controls untreated), 12 days): 3.6 fold
increase of CD235+ erythroid expansion ([2]; RPS19-insufficiency): 5.9 fold
CD235+ erythroid expansion, % of control ([2]; RPS19-insufficiency, 5.7% untreated): 33.3%
erythroid expansion in RPS19-insufficiency [2]: 28.4%
suppression of NLK expression [3, 5]: 59.4%
NLK activity with compound added to activated NLK in in vitro kinase assay [1]: did not influence
